Measured values published in paper PMC4117768, “Conjugation with polyamines enhances the antibacterial and anticancer activity of chloramphenicol” (Nucleic Acids Research, 2014).
“Also recorded” adds a separate entry of the source. Like-named read-outs stand apart in the source and are kept apart here.

Assays:
[1] = system: wild-type E. coli; assay: Growth inhibition of bacterial cell cultures; format: cell-based; settings: for IC50: Escherichia coli, read-out: IC50 (inhibit the growth by half); for IC50/IC50(puro): wild-type E. coli, IC50(puro) = concentration causing 50% inhibition in peptide-bond formation at 2 mM puromycin
Experimental: (§1) S. aureus or E. coli cells (400 μl of a 0.700 OD560 preculture) containing wild-type or mutant ribosomes were added in 3.6 ml of LB (Luria Broth) medium and grown at 37°C in the presence or absence of CAM or PA–CAM conjugates until the optical density of the control culture (grown in the absence of drug) reached the value 0.700 at 560 nm. From the growth curves, the IC50 value for each strain was estimated as the concentration of the drug that is required to inhibit the growth by half.

[2] = system: wild-type S. aureus; assay: Growth inhibition of bacterial cell cultures; format: cell-based; settings: Staphylococcus aureus, read-out: IC50 (inhibit the growth by half)
Experimental: as §1

[3] = system: E. coli (A2058G) TA531 cells with pKK35 plasmid, mutated 23S rRNA; assay: Growth inhibition of bacterial cell cultures, CAM-resistant mutant; format: cell-based; settings: for IC50: Escherichia coli, read-out: IC50 (inhibit the growth by half)
Text: (§2) CAM free base [D-(-)threo-1-(p-nitrophenyl)-2-amino-1,3-propanediol], puromycin dihydrochloride, tRNA^Phe from E. coli, dimethyl sulfate (DMS), DMS stop solution and tRNA^Phe from E. coli were purchased from Sigma-Aldrich. Kethoxal and 1-cyclohexyl-3-(2-morpholinoethyl)-carbodiimide metho-p-toluene sulfate (CMCT) were from MP Biomedicals and Fluka Biochemicals, respectively. AMV reverse transcriptase was supplied by Roche, dNTPs by HT Biotechnology, and ddNTPs by Jena Bioscience. L-[2,3,4,5,6 -^3H]Phenylalanine was from Amersham Biosciences and [α-^32P]ATP from Izotop. Cellulose nitrate filters (type HA; 0.45 μm pore size) were from Millipore Corp. Details in experimental procedures of synthesis and physical and spectra data for the synthesized compounds will be published elsewhere. […] The mesothelioma cell line ZL34 and its immortalized counterpart cell line Met5A, were kindly provided by Prof. G. Stathopoulos (University of Patras).
as §1

[4] = system: E. coli (A2503C) TA531 cells with pKK35 plasmid, mutated 23S rRNA; assay: as above; format: cell-based; settings: for IC50: Escherichia coli, read-out: IC50 (inhibit the growth by half)
Text: as §2, §1

[5] = system: HS-Sultan (Burkitt's lymphoma) cells; assay: Toxicity assay in leukemic cell line (cell counting, Annexin V flow cytometry); format: cell-based, human; settings: for induction of apoptosis (flow cytometry) / induction of necrosis (flow cytometry): 60 μM; for sensitivity of cells / inhibition of cell proliferation (cell counting): increasing concentrations
Experimental: Human leukemic cell lines, HS-Sultan (Burkitt's lymphoma) (European Collection of Cell Cultures, Salisbury, UK), Jurkat (T-cell acute lymphoblastic leukemia) and U937 (histiocytic lymphoma) (American Type Culture Collection, Manassas, USA), were adjusted to 1 × 10^9 cells/l in RPMI-1640 medium containing 1% Penicillin/Streptomycin and 10% fetal bovine serum and grown in triplicate in the presence or absence of CAM or PA–CAM conjugates for 4 days at 37°C, under a humidified 5% CO2 atmosphere. The medium was changed after 2 days of exposure; CAM or PA-CAM addition was repeated after medium change to keep the appropriate drug concentration. Aliquots were collected daily and counted in a CELL-DYN 3700 Hematology Analyzer. For cell necrosis and apoptosis assays, samples (10^6 cells) were collected daily and determined using the Annexin V-PE Apoptosis Detection Kit I (BD Pharmingen) for flow cytometry ([29]), as described by the manufacturer. Flow cytometry data were analyzed using the FlowJo flow cytometry analysis software. Necrotic and apoptotic cells were expressed as a percentage of total cells.
Figure S2. Toxicity assays in leukemic cell lines. Human leukemic cell lines, HS-Sultan, Jurkat, and U937 were adjusted to 1×10^9 cells/l in RPMI-1640 medium containing 1% Penicillin/Streptomycin and 10% fetal bovine serum and grown in triplicate in the presence or absence of CAM or compound 4 at the indicated concentrations for 5 days at 37°C, under a humidified 5% CO2 atmosphere. Aliquots were collected daily and counted in a CELL-DYN 3700 Hematology Analyzer.
Figure S3. Toxicity assays in HS-Sultan cells. HS-Sultan cells were adjusted to 1×10^9 cells/l in RPMI-1640 medium containing 1% Penicillin/Streptomycin and 10% fetal bovine serum and grown in triplicate in the presence or absence of CAM or compound 4 at the indicated concentrations for 4 days at 37°C, under a humidified 5% CO2 atmosphere. For cell necrosis and apoptosis assays, samples (10^6 cells) were collected daily and determined using the Annexin V-PE Apoptosis Detection Kit I for flow cytometry. Non-viable and necrotic cells were expressed as a percentage of total cells.

[6] = system: human mesothelioma cells ZL34; assay: Cell viability by trypan blue exclusion assay; format: cell-based; settings: for IC50: Homo sapiens, ZL34 cells, read-out: IC50 (toxicity, cell viability)
Experimental: (§3) ZL34 and Met5A cells were plated in sterile 96-well microtiter plates at 5 × 10^4cells/ml and grown in Dulbecco's modified Eagle's medium (DMEM), provided by Sigma-Aldrich and supplemented with 5% fetal bovine serum. Cultures were maintained in a humidified atmosphere with 5% CO2, at 37°C. Solutions at the appropriate concentration of each compound were added, and then cells were grown for 24, 48, 72 and 96 h. After treatment, the drug was removed by washing the cells twice with phosphate buffered saline. The cells were then trypsinized (100 μl Trypsin-EDTA × 1 (Biosera) solution/well, 10 min at 37°C), mixed with 1 ml DMEM and collected by centrifugation at 3000 × g for 5 min. Cell viabilities were determined by the trypan blue exclusion assay, using a TC10 automated cell counter (BIO-RAD). Viable cells were expressed as a percentage of total cells.
(§4) Figure S5. Toxicity assays in ZL34 and Met5A cell lines. ZL34 or Met5A cells were plated in sterile 96-well microtiter plates at 5×10^4 cells/ml and grown in DMEM, supplemented with 5% fetal bovine serum. Cultures were maintained in a humidified atmosphere with 5% CO2, at 37°C. Solutions at the appropriate concentration of each compound were added, and then cells were grown for 24 h, 72 h and 96 h. After treatment, CAM or compound 4 was removed by washing the cells twice with PBS. The cells were then trypsinized, mixed with 1 ml DMEM and collected by centrifugation at 3,000×g for 5 min. Cell viabilities were determined by the trypan blue exclusion assay, using a TC10 automated cell counter (BIO-RAD). Viable cells were expressed as a percentage of total cells. SPD, spermidine.

[7] = system: immortalized human mesothelial Met5A cells; assay: Cell viability by trypan blue exclusion assay; format: cell-based; settings: for IC50: Homo sapiens, MeT-5A, Met5A cells, read-out: IC50 (toxicity, cell viability)
Experimental: as §3, §4

SMILES: O=C(N[C@H](CO)[C@H](O)c1ccc([N+](=O)[O-])cc1)C(Cl)Cl [CAM, Chloramphenicol]
- IC50 ([1]; WT-E. coli, LB medium, 37°C): 6.2 ± 0.5 µM
- IC50/IC50(puro) [1]: 1.17 ± 0.13
- IC50 ([2]; WT-S. aureus, LB medium, 37°C): 3.1 ± 0.3 µM
- IC50 [3]: 15.5 ± 1.3 µM
- IC50 [4]: 24.7 ± 2.3 µM
- induction of apoptosis (flow cytometry) [5]: failed to induce apoptosis
- induction of necrosis (flow cytometry) [5]: induced necrosis
- sensitivity of cells / inhibition of cell proliferation (cell counting) [5]: sensitive
- IC50 [6]: > 300 µM
- rescue by exogenously added spermidine ([6]; ZL34 cells treated with 300 μM compound, 3 mM spermidine): no rescue was observed
- IC50 [7]: > 300 µM

SMILES: NCCCN(CCCCN(Cc1ccccc1)Cc1ccccc1)C(=O)CCC(=O)N[C@H](CO)[C@H](O)c1ccc([N+](=O)[O-])cc1 [Compound 4]
- IC50 [1]: 9.4 ± 0.8 µM
- IC50/IC50(puro) [1]: 5.60 ± 0.76
- IC50 [2]: 4.7 ± 0.5 µM
- IC50 superiority over CAM ([3]; E. coli A2058G mutant): ~2 fold
- IC50 [3]: 9.4 ± 1 µM
- IC50 superiority over CAM ([4]; E. coli A2503C mutant): ~2 fold
- IC50 [4]: 9.4 ± 0.9 µM
- induction of apoptosis (flow cytometry) [5]: apoptosis to HS-Sultan cells
- induction of necrosis (flow cytometry) [5]: induced necrosis
- sensitivity of cells / inhibition of cell proliferation (cell counting) [5]: sensitive; also recorded: more effective than CAM
- IC50 [6]: 25 ± 3 µM
- viability after rescue by exogenously added spermidine ([6]; ZL34 cells exposed to an IC50 dose of the compound, spermidine at 10 × IC50): ~95%
- IC50 [7]: 60 ± 5 µM
- rescue by exogenously added spermidine ([7]; Met5A cells exposed to an IC50 dose of the compound, spermidine at 10 × IC50): recover little of the lost viability
